The results in this text go back to PubChem BioAssay (NCI).

Values joined by “and” are separate entries in the source; they are usually repeats but may differ in a detail not shown here. Equal entries are not always repeated.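 Values below derive from 48-hour exposures of cells grown in 96-well plates, with endpoints linearly interpolated between the two concentrations bracketing the appropriate inhibition level. Abbreviation: GI50, concentration required for 50% inhibition of growth. TGI is the concentration that stops growth completely.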 Bounds are passed on as bounds.

Test systems include LOX IMVI melanoma; MDA-MB-435; UACC-257 melanoma; SW-620 colon; HS 578T breast; MOLT-4 leukemia; HL-60(TB) leukemia; SF-295 CNS; NCI-H460 lung; OVCAR-4 ovarian.
What all share (assay): NCI tumour cell line growth inhibition, 48 h

For the compound `CN(CC(=O)O)Cc1c[nH]c2ccccc12`, the TGI in the test with LOX IMVI melanoma, in the test with MDA-MB-435, in the test with UACC-257 melanoma, in the test on SW-620 colon, with HS 578T breast and in the test on MOLT-4 leukemia was greater than 100 µM in each case. The TGI in the test on HL-60(TB) leukemia, in the test on SF-295 CNS, in the test with NCI-H460 lung and in the test with OVCAR-4 ovarian was greater than 100 µM throughout.
Take `COc1nc(C(Cl)(Cl)Cl)c(Cl)c(OC)c1Cl`: the TGI in the test with LOX IMVI melanoma was 62.6 µM; in the test on MDA-MB-435 it was 79.7 µM; in the test with UACC-257 melanoma it was > 72.9 µM and 79.7 µM; in the test with SW-620 colon it was > 74.8 µM and 75 µM; in the test with HS 578T breast, 75.5 µM; with MOLT-4 leukemia it was > 67.4 µM and 62.3 µM. For the same compound, the TGI in the test on HL-60(TB) leukemia is > 60.3 µM and 71.8 µM; with SF-295 CNS, > 56.9 µM and 75.3 µM; in the test on NCI-H460 lung, > 57.9 µM and 61.2 µM; in the test on OVCAR-4 ovarian, 99.9 µM and 66.3 µM. Moreover, the GI50 in the test on UACC-257 melanoma is greater than 50.9 µM; with SW-620 colon, greater than 49.3 µM; in the test on MOLT-4 leukemia, greater than 44.9 µM; in the test on HL-60(TB) leukemia it was greater than 41.9 µM; with NCI-H460 lung, greater than 39.4 µM; with OVCAR-4 ovarian it was greater than 52.1 µM.
As for `CCc1cc(Cc2cc(CC)cc(C(C)(C)C)c2O)c(O)c(C(C)(C)C)c1`, the GI50 in the test with LOX IMVI melanoma is 3.27 µM; in the test with MDA-MB-435, 2.35 µM; in the test with UACC-257 melanoma, 2.79 µM; with SW-620 colon, 2.25 µM; in the test with HS 578T breast, 2.59 µM; in the test on MOLT-4 leukemia, 3.99 µM. Moreover, the GI50 was 4.42 µM with HL-60(TB) leukemia, 2.06 µM with SF-295 CNS, 2.59 µM with NCI-H460 lung and 3.56 µM with OVCAR-4 ovarian. Further, the TGI in the test with LOX IMVI melanoma is 12 µM; in the test on MDA-MB-435, 7.16 µM; in the test on UACC-257 melanoma, 11.6 µM; with SW-620 colon, 7.07 µM; with HS 578T breast, 8.29 µM; with MOLT-4 leukemia it was greater than 100 µM. In addition, the TGI in the test with HL-60(TB) leukemia is greater than 100 µM; with SF-295 CNS, 4.88 µM; in the test with NCI-H460 lung, 6.98 µM; in the test on OVCAR-4 ovarian, 12.7 µM.
On to `COc1cc(-c2nc3cc(Cl)c(Cl)cc3[nH]2)ccc1OCC(=O)N=Nc1c(O)[nH]c2ccccc12`, for which the GI50 with LOX IMVI melanoma is 0.192 µM; with MDA-MB-435, 0.389 µM; with UACC-257 melanoma it was 1.32 µM; in the test on SW-620 colon, 0.355 µM; in the test with HS 578T breast, 1.21 µM; in the test with HL-60(TB) leukemia, 0.392 µM. The GI50 in the test on SF-295 CNS was 1.28 µM; with NCI-H460 lung, 0.42 µM; in the test on OVCAR-4 ovarian, 0.307 µM. Besides, the TGI with LOX IMVI melanoma came out at 0.368 µM; with MDA-MB-435, 1.42 µM; in the test on UACC-257 melanoma, 3.67 µM; in the test with SW-620 colon, 1.43 µM; in the test with HS 578T breast, 4.05 µM; with HL-60(TB) leukemia, 2.22 µM. Moreover, the TGI with SF-295 CNS worked out at 2.71 µM; in the test on NCI-H460 lung, 1.63 µM; in the test on OVCAR-4 ovarian it was 0.921 µM.
Turning to `Cc1nc(N(C)C)nc(-c2cccc(-c3ccn(CCN(C)C)n3)c2)c1C`, the GI50 is greater than 20 µM in the test on LOX IMVI melanoma; greater than 20 µM with MDA-MB-435; greater than 20 µM with UACC-257 melanoma; greater than 20 µM in the test with SW-620 colon; 12.7 µM in the test on HS 578T breast; greater than 20 µM in the test with MOLT-4 leukemia. The GI50 in the test on HL-60(TB) leukemia, with NCI-H460 lung and in the test on OVCAR-4 ovarian was greater than 20 µM in each case. Further, the TGI in the test on LOX IMVI melanoma, in the test on MDA-MB-435, in the test with UACC-257 melanoma, in the test on SW-620 colon, in the test with HS 578T breast and in the test with MOLT-4 leukemia was greater than 20 µM each time. Moreover, the TGI in the test on HL-60(TB) leukemia, with NCI-H460 lung and with OVCAR-4 ovarian was greater than 20 µM each time.
Take `Nc1c(S(=O)(=O)O)cc2c(c1Cl)C(=O)c1ccccc1C2=O`: the GI50 in the test on LOX IMVI melanoma, in the test on MDA-MB-435, in the test with UACC-257 melanoma, in the test on SW-620 colon, with HS 578T breast and in the test with MOLT-4 leukemia was greater than 100 µM throughout. Moreover, the GI50 with HL-60(TB) leukemia, in the test on SF-295 CNS and with NCI-H460 lung was greater than 100 µM throughout. In addition, the TGI with LOX IMVI melanoma, with MDA-MB-435, in the test on UACC-257 melanoma, in the test on SW-620 colon, in the test with HS 578T breast and in the test on MOLT-4 leukemia was greater than 100 µM in each case. Further, the TGI with HL-60(TB) leukemia, with SF-295 CNS and in the test on NCI-H460 lung was greater than 100 µM throughout.
In the case of `Nc1nc(-c2ccccc2Cl)cc(-c2ccc(Cl)cc2Cl)n1`, the GI50 is 4.89 µM in the test on LOX IMVI melanoma; 1.97 µM in the test on MDA-MB-435; 11.9 µM with UACC-257 melanoma; 3.41 µM in the test with SW-620 colon; 6.04 µM in the test with HS 578T breast; 4.82 µM with MOLT-4 leukemia. Moreover, the GI50 is 3.14 µM in the test with HL-60(TB) leukemia, 3.31 µM in the test with NCI-H460 lung and 12.1 µM with OVCAR-4 ovarian. The TGI was greater than 100 µM in the test on LOX IMVI melanoma; 4.93 µM with MDA-MB-435; 55.2 µM in the test on UACC-257 melanoma; greater than 100 µM in the test with SW-620 colon; 60.7 µM with HS 578T breast; greater than 100 µM with MOLT-4 leukemia. The TGI in the test on HL-60(TB) leukemia was determined as 17.3 µM; in the test with NCI-H460 lung, 23.1 µM; in the test on OVCAR-4 ovarian, 89.7 µM.
As for `c1ccc2c(c1)-c1nc3ccccc3cc1C2N1CCOCC1` (stereo unspecified), the TGI with LOX IMVI melanoma, with MDA-MB-435, with UACC-257 melanoma, in the test on SW-620 colon, in the test on HS 578T breast and in the test on MOLT-4 leukemia was greater than 100 µM throughout. The TGI in the test with HL-60(TB) leukemia, with SF-295 CNS and in the test with OVCAR-4 ovarian was greater than 100 µM in each case.
On to `CC(NC(=O)C1(N)CCCC1)C(=O)O` (stereo unspecified), for which the TGI with LOX IMVI melanoma, in the test on MDA-MB-435, with UACC-257 melanoma, with SW-620 colon, with HS 578T breast and in the test on MOLT-4 leukemia was greater than 100 µM each time. For the same compound, the TGI in the test with HL-60(TB) leukemia, in the test with SF-295 CNS and in the test on OVCAR-4 ovarian was greater than 100 µM in each case.
